Measurements: patent publication US7332482B2, “Method for treating benign prostatic hyperplasia” (BioXell S.p.A., priority 2003, dated 2008)
Entries after “also recorded” stand apart in the source; their conditions may differ.

Legend:
[1] = system: bladder strips; assay: In vitro contractility of bladder strips from BOO rats; design: species or system rat; details: strips from treated rats
Procedure: After completion of the cystometries, the rats were sacrificed by carbon monoxide asphyxiation followed by exsanguination. The abdomen was accessed through a lower midline incision whereafter the symphysis was opened. The bladder was carefully dissected free, and immediately placed in chilled Krebs solution, and strip preparations were dissected.
The bladder and urethra were separated at the level of the bladder neck, and semicircular strips were prepared from the middle third of the detrusor (1×2×5 mm). All preparations were used immediately after removal.
The strips were transferred to 5 ml tissue baths containing Krebs solution. The Krebs solution was maintained at 37° C. and bubbled continuously with a mixture of 95% O2 and 5% CO2, resulting in a pH of 7.4. The strips were suspended between two L-shaped hooks by means of silk ligatures. One hook was connected to a movable unit allowing adjustment of passive tension, and the other to a Grass FT03C (Grass Instruments Co, MA, USA) force transducer. Isometric tension was recorded using a Grass polygraph (7D). After mounting, the strips were stretched to a passive tension of 4 mN (the same tension for all preparations) and allowed to equilibrate for 45-60 min before further experiments were performed.
Electrical field stimulation (EFS) was accomplished by means of two platinum electrodes placed on either side of the preparations, and was performed using a Grass S48 or S88 stimulator, delivering single square wave pulses at selected frequencies. The train duration was 5 s, the pulse duration 0.8 ms, and the stimulation interval 2 min. The polarity of the electrodes was shifted after each pulse by means of a polarity changing unit.
Each experiment was started by exposing the preparations to a high K^+ (124 mM) Krebs solution until two reproducible contractions are obtained. […]

[2] = biological target: T1, AR (Homo sapiens, UniProt P10275); assay: [3H]R1881 binding assay on cytosol fractions of BPH fragments; design: from tissue; host or cells: human BPH prostatic tissue, cytosol fraction
T1 sequence (P10275 1-920): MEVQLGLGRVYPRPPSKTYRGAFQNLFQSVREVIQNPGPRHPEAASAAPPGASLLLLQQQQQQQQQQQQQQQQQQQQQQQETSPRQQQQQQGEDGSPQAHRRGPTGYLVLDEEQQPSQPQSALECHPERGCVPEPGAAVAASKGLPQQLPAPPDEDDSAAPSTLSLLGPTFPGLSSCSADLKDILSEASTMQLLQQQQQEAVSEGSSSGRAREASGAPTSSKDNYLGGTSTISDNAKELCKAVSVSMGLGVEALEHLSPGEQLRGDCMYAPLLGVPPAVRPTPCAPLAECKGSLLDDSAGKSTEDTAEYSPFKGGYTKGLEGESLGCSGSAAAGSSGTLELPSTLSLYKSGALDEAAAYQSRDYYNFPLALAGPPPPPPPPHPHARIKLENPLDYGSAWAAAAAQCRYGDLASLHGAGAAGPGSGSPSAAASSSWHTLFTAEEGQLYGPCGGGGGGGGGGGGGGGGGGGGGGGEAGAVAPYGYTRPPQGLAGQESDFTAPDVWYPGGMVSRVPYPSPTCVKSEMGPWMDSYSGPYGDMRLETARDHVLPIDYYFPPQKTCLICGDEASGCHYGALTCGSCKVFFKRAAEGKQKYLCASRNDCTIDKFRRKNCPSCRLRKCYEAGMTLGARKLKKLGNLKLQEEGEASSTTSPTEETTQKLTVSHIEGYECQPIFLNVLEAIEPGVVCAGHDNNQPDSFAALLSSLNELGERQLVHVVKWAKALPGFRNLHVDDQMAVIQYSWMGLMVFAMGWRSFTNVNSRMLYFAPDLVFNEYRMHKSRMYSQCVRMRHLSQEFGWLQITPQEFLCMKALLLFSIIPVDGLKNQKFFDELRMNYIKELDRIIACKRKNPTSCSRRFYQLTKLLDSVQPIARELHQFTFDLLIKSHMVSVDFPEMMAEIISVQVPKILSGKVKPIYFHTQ
Procedure: Prostatic tissues for binding assay were obtained from patients who underwent suprapubic adenomectomy for BPH. No pharmacological treatment was performed in the 3 months preceding surgery. After surgery, the tissues were immediately placed in liquid nitrogen and stored at −80° C. until processing.
Protein content was determined by the known method of Bradford, using BSA as a standard.

[3] = system: BPH cells; assay: BPH cell proliferation assay; format: cell-based, human; details: 48 h
Procedure: Human BPH cells, prepared, maintained and used as previously described in Crescioli C, et al. Journal of Clinical and Endocrinology Metabolism (2000) 85 p 2576-2583, were obtained from prostate tissues derived from 5 patients, who underwent suprapubic adenomectomy for BPH, after informed consent and approval by the Local Ethical Committee.
For all cell proliferation assay, 4×10^4 BPH cells were seeded onto 12-well plates in their growth medium, starved in red- and serum-free medium containing 0.1% BSA for 24 h, and then treated with specific stimuli for 48 h. Cells in phenol red- and serum-free medium containing 0.1% BSA were used as controls. Thereafter, cells were trypsinized, and each experimental point was derived from hemocytometer counting, averaging at least six different fields for each well, as previously reported (see Crescioli C, et al. Journal of Clinical and Endocrinology Metabolism (2000) 85 p 2576-2583). […] Growth assays were also carried out using a fixed concentration of androgens (10 nM) with or without Compound A (1 nM, 10 nM) or the anti-androgens finasteride (F, 1 nM) and cyproterone acetate (Cyp, 100 nM). Growth assays were also performed using a fixed concentration of T (10 nM) or GFs (10 ng/ml) with or without Compound A (10 nM). In the same experiment, each experimental point was repeated in triplicate or quadruplicate and experiments were performed 3 times. Results are expressed as % variation (mean±SEM) over the maximal T or GF-induced stimulation.

[4] = system: human bladder cells; assay: Bladder cell growth, basal and testosterone-stimulated; format: cell-based

C=C1/C(=C\C=C2/CCC[C@]3(C)C([C@@H](C)C/C=C/C(O)(CC)CC)=CC[C@@H]23)C[C@@H](O)C[C@@H]1F [Compound A, 1-alpha-fluoro-25-hydroxy-16,23E-diene-26,27-bishomo-20-epi-cholecalciferol]
response of bladder strips to EFS [1]: beneficial effect
response of bladder strips to carbachol [1]: beneficial effect
K response of bladder strips ([1]; high K+ 124 mM): beneficial effect
Kd [2]: > 100 µM
competition for [3H]-R1881 binding ([2]; human BPH homogenates, 10^−10-10^−4 M): did not compete
effect on growth of androgen-unstimulated BPH cells ([3]; Compound A 1 nM): reduced growth
effect on DHT-stimulated BPH cell proliferation ([3]; DHT 10 nM, Compound A 1 nM, F 1 nM, Cyp 100 nM): antagonized; also recorded: significantly blocked
effect on T-stimulated BPH cell proliferation ([3]; T 10 nM, Compound A 1 nM, F 1 nM, Cyp 100 nM): antagonized; also recorded: significantly blocked
Imax, inhibition of T- or GF-stimulated BPH cell growth ([3]; T 10 nM, KGF or Des(1-3)IGF-I 10 ng/ml): 66.6±7.3%
maximal inhibition (Imax) of BPH cell growth ([3]; unstimulated BPH cells, Imax shared by both secosteroids): 43±1%
inhibition of basal and testosterone-stimulated growth of bladder cells [4]: effective in inhibiting
effect on bladder cell growth compared with finasteride ([4]; T 10 nM, F 1 nM): significantly greater than that of the anti-androgen finasteride
